Consider two molecules from US20200399262A1, “COMPOUNDS FOR INHIBITING PROTEIN DEGRADATION AND METHODS OF USE THEREOF IN THE TREATMENT OF CANCER” (PI Therapeutics Ltd, priority 2018, published 2020).

For orientation: EC50 means the concentration needed to bring the measured effect to its halfway point.

Data set [1] has as its system poly-ubiquitinated proteins. The experiment in a line: Western blot of poly-ubiquitinated proteins in MM1.S cells. The format is cell-based. The note with it: SDS-PAGE immunoblot. How it is done:
MM1.S cells were treated with Compound B1 (FIG. 1A), Compound AA (FIG. 1B) and Compound E1 (FIG. 1C) for indicated periods of time. Following treatment, the cells were harvested, and the lysates resolved on SDS-PAGE. Transferred membranes were blotted with antibodies as indicated. Actin was used as loading control.
Protein analysis by Western blot. At the end of treatment period, the cells were lysed with M-PER mammalian protein extraction reagent (ThermoFisher Scientific) supplemented with protease inhibitors. Equal protein amounts were resolved on pre-cast SDS-PAGE (ThermoFisher Scientific) and transferred to a PVDF membrane. The membrane was immunoblotted with antibodies as indicated. The following antibodies were used: Ub MAb (SC-8017, Santa-Cruz), ATF4, ATF6, phospho JNK, JNK (Cell signaling); eIF2alpha, phospho eIF2alpha (Novus).
(In general: In western blotting, separated proteins are transferred to a membrane and probed.)

Another data set has as its system proteasome. Put plainly: Proteasome activity (Proteasome-GLO) in intact MM1.S cells. Type of data set: cell-based. As to conditions: 3 hr at 37° C. How it is done:
Proteasome activity was measured in intact MM1.S cells as cleavage of peptide substrates, specific for Trypsin like (TL), Chemotrypsin like (CTL) and Caspase like (PL) activities of the proteasome following treatment with Compound B1, Compound AA or Bortezomib (BTZ) at ˜EC50 concentrations for 3 hr at 37° C. BTZ was used as positive control.
Proteasome activity. The assay was performed only when cell viability is ≥90%. Cells were seeded in 96-well white clear bottom plates and treated with diluted compounds or vehicle control in triplicates for 3 hours at various concentrations. Catalytic activity was measured using three luminogenic proteasome substrates: Suc-LLVY-aminoluciferin (Succinyl-leucine-leucine-valine-tyrosine-aminoluciferin), Z-LRR-aminoluciferin (Z-leucine-arginine-arginine-aminoluciferin) and Z-nLPnLD-aminoluciferin (Z-norleucine-proline-norleucine-aspartate-aminoluciferin) for the chymotrypsin-like, trypsin-like and caspase-like activities, respectively (Proteasome-GLO, Promega). The emitted light was proportional to the proteasomal activity. Catalytic activity was calculated as the percent activity from control vehicle-treated cells.
MM1.S cells, were treated with Compound B1, Compound AA or Bortezomib (BTZ) at various concentrations for 3 hr at 37° C. […] Proteasome activity was measured by cleavage of proteasome-specific peptide substrates for TL, CTL and PL activities.

The subject of another data set is MM1.S xenograft. Put plainly: MM1.S subcutaneous flank xenograft in athymic nude mice. The note with it: for MM tumor growth compared to vehicle control / body weight % changes: TIW for 21 days; for Blood chemistry profiles (liver or kidney toxicity): TIW, treated mice. The format is in vivo. The source says:
FIG. 4A-4D depicts the growth inhibition of MM1.S xenograft in nude mice by Compound B1 (FIG. 4A, FIG. 4B) and Compound AA (FIG. 4C, FIG. 4D). FIG. 4A and FIG. 4C show tumor growth inhibition observed at end point measurements by Compound B1 and AA respectively. […] MM.1S cells (5×10^6 cells/mouse) were implanted in the rear flank of mail mice (6 weeks of age at the time of tumor implantation). On Day 20-23, mice were randomized for equivalent distribution of tumor volumes to treatment groups (n=5/group) and treated IV with vehicle, compound B1 (FIG. 4A) and compound AA (FIG. 4C), three time a week (TIW) for 21 days. Data are presented as mean tumor volume±SD. Body weight % changes in treated animals observed during the course of the study for compound B1 (FIG. 4B) and Compound AA (FIG. 4D).
Animal xenograft models. MM1.S, HCT-116, SW620 cell lines were purchased from ATCC and used for xenograft model. The cells were cultured in RPMI medium (Sigma-Aldrich) supplemented with 10% fetal bovine serum (FBS) and divided for up to 5 passages. Shortly prior to injection, cell suspension was mixed with Matrigel at 1:1 (V/V) and injected subcutaneously to the rear flank area of male nude athymic 6 weeks old mice to obtain administration of 5×10^6 cells/animal. On day 20-23, when tumor volume reached 100-150 mm^3, mice were randomized for equivalent distribution of tumor volumes to treatment groups (n=5/group) and treated via intravenous injection.

Data set [2] concerns PBMCs from healthy donors. The experiment in a line: In-vitro safety in PBMCs from healthy donors (ATPlite viability). The format is cell-based. The note with it: for therapeutic window, EC50 (PBMC)/EC50 (MM1.S) ratio: 5 healthy donor PBMC samples, viability 48 h later; for therapeutic window, EC50 (PBMC)/EC50 (MM1.S) ratio / cytotoxicity to PBMCs from healthy donors: 6 h treatment; for sensitivity of MM1.S cells versus PBMCs from healthy donors: 6 hr exposure, viability following 48 h of incubation; for cytotoxicity to PBMCs from healthy donors: viability 48 h later (ATPlight assay). The method, then:
FIG. 5 depicts the in-vitro safety of Compound B1 and Compound AA in Peripheral Blood Mononuclear Cells (PBMCs) from healthy donors respectively. MM1.S cells and normal PBMCs from healthy donors were treated with various concentrations of indicated compounds for 6 h and then analyzed 48 h later for cell viability (ATPlight assay). […] Calculated therapeutic windows: […], generated from 5 healthy donor PBMC samples, based on mean viability data.
PBMCs from healthy donors were exposed to Compound B1 and Compound AA for 6 hr and analyzed for viability by ATPight following 48 h of incubation. Results are representative of PBMCs from 5 healthy volunteers (FIG. 5). EC50 (PBMC)/EC50 (MM1.S) ratio, generated from 5 healthy donor PBMC samples, is shown for Compound B1, Compound AA and other UPS inhibitors [ixazomib, Bortezomib (BTZ) and CB5083].

Another data set has as its system SW-620. The experiment in a line: NCI60 screen cytotoxicity. As to conditions: Homo sapiens, Colon cancer, read-out: Compound B1 EC50. Type of data set: cell-based.
Another data set has as its system HCC-2998. Put plainly: NCI60 screen cytotoxicity. The format is cell-based. The note with it: Homo sapiens, Colon cancer, read-out: Compound B1 EC50.
Another data set has as its system COLO-205. The experiment in a line: NCI60 screen cytotoxicity. Type of data set: cell-based. As to conditions: Homo sapiens, Colon cancer, read-out: Compound B1 EC50.
The next data set relates to HL-60. The experiment in a line: NCI60 screen cytotoxicity. The note with it: Homo sapiens, Leukemia, read-out: Compound B1 EC50. The format is cell-based.
Another data set has as its system HOP-92. The experiment in a line: NCI60 screen cytotoxicity. The format is cell-based. As to conditions: Homo sapiens, Lung cancer, read-out: Compound B1 EC50.
The next data set has as its system OVCAR-3. The experiment in a line: NCI60 screen cytotoxicity. Type of data set: cell-based. The note with it: Homo sapiens, Ovarian cancer, read-out: Compound B1 EC50.
For the next data set, the system named is OVCAR-4. Put plainly: NCI60 screen cytotoxicity. The note with it: Homo sapiens, Ovarian cancer, read-out: Compound B1 EC50. Type of data set: cell-based.
For a further data set, the system named is UO-31. Put plainly: NCI60 screen cytotoxicity. The format is cell-based. As to conditions: Homo sapiens, Renal cancer, read-out: Compound B1 EC50.
Another data set concerns PC-3. Put plainly: NCI60 screen cytotoxicity. As to conditions: Homo sapiens, Prostate cancer, read-out: Compound B1 EC50. Type of data set: cell-based.
For the next data set, the system named is LOX IMVI. Put plainly: NCI60 screen cytotoxicity. Type of data set: cell-based. As to conditions: Homo sapiens, Melanoma, read-out: Compound B1 EC50.
The next data set concerns UACC-257. Put plainly: NCI60 screen cytotoxicity. As to conditions: Homo sapiens, Melanoma, read-out: Compound B1 EC50. The format is cell-based.
The test system of another data set is UACC-62. The experiment in a line: NCI60 screen cytotoxicity. The format is cell-based. As to conditions: Homo sapiens, Melanoma, read-out: Compound B1 EC50.

Take `CN(C)CCCS(=O)(=O)N1C/C(=C\c2ccc(C#N)cc2)C(=O)/C(=C/c2ccc(C#N)cc2)C1` [Compound AA]: the “accumulation of poly-ubiquitinated proteins” value in data set [1] is given as “observable accumulation of poly-ubiquitinated proteins”. Moreover, the “inhibition of the enzymatic functions of the proteasome (TL, CTL and PL activities)” value with proteasome is “does not Inhibit”. In the data set with MM1.S xenograft (4 mg/kg IV), the “MM tumor growth compared to vehicle control” value is “significantly inhibited MM tumor growth”, the “body weight % changes” value was “No significant weight loss” and the “Blood chemistry profiles (liver or kidney toxicity)” value is recorded as “no clinical abnormalities suggestive of liver or kidney toxicity”. Also, in data set [2], the “therapeutic window, EC50 (PBMC)/EC50 (MM1.S) ratio” value was “larger Tx window than competing UPS inhibitors”; the “sensitivity of MM1.S cells versus PBMCs from healthy donors” value is “more sensitive”; the “cytotoxicity to PBMCs from healthy donors” value is “less cytotoxic to PBMCs from healthy donors than Ixazomib, Bortezomib (BTZ) and CB5083”.
In the case of `CN(C)CC(=O)NCC(=O)N1C/C(=C\c2ccc(C#N)cc2)C(=O)/C(=C/c2ccc(C#N)cc2)C1` [Compound B1], the half-maximal effective concentration (EC50) was under 300 nM with SW-620; under 300 nM with HCC-2998; 300 to 1000 nM with COLO-205; under 300 nM in the data set on HL-60; 300 to 1000 nM in the data set on HOP-92; under 300 nM in the data set with OVCAR-3. Besides, the EC50 in the data set on OVCAR-4 was 300 to 1000 nM; in the data set on UO-31, 300 to 1000 nM; with PC-3, under 300 nM; with LOX IMVI, under 300 nM; in the data set on UACC-257 it was 300 to 1000 nM; with UACC-62, 300 to 1000 nM. In data set [1], the “accumulation of poly-ubiquitinated proteins” value is given as “observable accumulation of poly-ubiquitinated proteins”. Besides, the “inhibition of the enzymatic functions of the proteasome (TL, CTL and PL activities)” value in the data set on proteasome is “does not Inhibit”. In the data set on MM1.S xenograft (5 mg/kg IV), the “MM tumor growth compared to vehicle control” value is on record as “significantly inhibited MM tumor growth”. Also, the “body weight % changes” value in the data set with MM1.S xenograft (5 mg/kg IV) is on record as “No significant weight loss”. Also, the “Blood chemistry profiles (liver or kidney toxicity)” value in the data set on MM1.S xenograft (5 mg/kg IV) was “no clinical abnormalities suggestive of liver or kidney toxicity”. Moreover, the “therapeutic window, EC50 (PBMC)/EC50 (MM1.S) ratio” value in data set [2] is “larger Tx window than competing UPS inhibitors”. The “sensitivity of MM1.S cells versus PBMCs from healthy donors” value in data set [2] is “more sensitive”. For the same molecule, the “cytotoxicity to PBMCs from healthy donors” value in [2] is “less cytotoxic to PBMCs from healthy donors than Ixazomib, Bortezomib (BTZ) and CB5083”.
